# Measured values: PubChem BioAssay AID2060616 (Molecular Pharmacology Branch, DTP, NCI, 2025)
# Where “and” joins values, the source holds several entries; their conditions need not be identical. Equal values may be shown once.
# Test system: 377384-186-R-J1-PDC complex spheroid viability
# Test: Anticancer human tumor 377384-186-R-J1-PDC patient-derived pancreatic carcinoma cell line growth inhibition [CLK]
# Conditions: for viability, T/C: stronger effect = lower value
# From the text: A high-throughput screen of multi-cell type tumor spheroids was designed to identify active combinations of […] and targeted small molecules. Complex spheroids include a stromal component modeled by human endothelial cells (HUVEC) and fibroblasts modeled by human mesenchymal stem cells (MSCs). The concentration ranges selected for each drug and investigational agent were based upon clinically achievable concentrations if the clinical Cmax of the agent was known.
# Compounds. The drugs and investigational agents: cirtuvivint (SM08502; NSC835563), CC-671 (NSC850746), vemurafenib (NSC761431), tapotoclax (NSC804041), sotorasib (NSC818433), adagrasib (NSC831453), MRTX-1133 (NSC836407), BAY2416964 (NSC825713), copanlisib (NSC816437), inavolisib (NSC800729), abemaciclib (NSC768073), osimertinib (NSC779217), entinostat (NSC756642), eltanexor (KPT-8602, NSC794443), venetoclax (NSC766270), ceralasertib (NSC777638), bortezomib (NSC756655), olaparib (NSC753686), talazoparib (NSC767125), alisertib (NSC759677), peposertib (NSC802822), gemcitabine (NSC613327), 5-fluorouracil (NSC19893), SN-38 (NSC673596), oxaliplatin (NSC266046), paclitaxel (NSC125973), and doxorubicin (NSC123127), were obtained from the National Cancer Institute (NCI) Developmental Therapeutics Program Chemical Repository. The FDA-approved anticancer drug set is available from the Developmental Therapeutics Program at https://dtp.cancer.gov/organization/dscb/obtaining/available plates.htm. […] The stock solutions were prepared in dimethyl sulfoxide (DMSO, Sigma-Aldrich, St. Louis, MO, cat. D2650), except for the platinum complexes which were prepared in saline (Quality Biological, Gaithersburg, MD, cat. 114-055-101), at 800-fold the tested concentration and stored at -70 degrees C prior to their use. All drugs and investigational agents were tested over a range starting from a high concentration at or near the clinical Cmax and decreasing in half-log increments. If the clinical Cmax for an agent had not been determined, the highest concentration tested was 10 microM.
# Cell Culture. All cells were maintained in an incubator at 37 degrees C and 5% CO2 with 95% humidity. The PDC lines were cultured according to standard operating procedures established by the NCI PDMR. Briefly, all PDCs were thawed and cultured in Matrigel-coated flasks prepared with a working solution of 1X Ham's F-12 nutrient mix, without supplementation (Invitrogen, Waltham, MA, cat. 11765054), 100 U/mL penicillin-streptomycin (Invitrogen, cat. 15140122), and 2.5% Matrigel (Corning Inc., Corning, NY, cat. 354248) for the first three passages. The 947758-054-R-J2-PDC line was cultured in 6B/Colon 1A media, which includes advanced DMEM/F-12 (Thermo Fisher Scientific, cat. 12634028), 10 mM HEPES (Thermo Fisher Scientific, cat. 15630080), 1X GlutaMAX supplement (Thermo Fisher Scientific, cat. 35050061), 0.1 mg/mL primocin (InvivoGen, cat. ant-pm-2), 10% defined fetal bovine serum, heat inactivated (HyClone Laboratories Inc., cat. SH30070.03HI), 1.25 mM N-Acetyl-L-cysteine (Sigma-Aldrich, cat. A9165), 10 mM nicotinamide (Sigma-Aldrich, cat. N0636), 1X B-27 supplement (Thermo Fisher Scientific, cat. 17504044), 1X N-2 supplement (Thermo Fisher Scientific, cat. 17502048), and 10 microM Y-27632 dihydrochloride (Tocris Bioscience, cat. 1254). The 876862-298-R-J1-PDC was cultured in 6E media, which includes all 6B/Colon 1A media components plus 50% L-WRN conditioned media (ATCC, cat. CRL-3276), 50 ng/mL recombinant human EGF recombinant protein (hEGF; Thermo Fisher Scientific, cat. PHG0311), 10 ng/mL recombinant human fibroblast growth factor 10 (hGFG-10; PeproTech, cat. 100-26), 1 ng/mL recombinant human fibroblast growth factor 2 (hFGF-2; PeproTech, cat. 100-18B), and 1 µM prostaglandin E2 (PGE2; Tocris, cat. 2296). The 227483-062-R1-J1-PDC line was cultured in Panc media, containing all 6E components except hFGF-2, with the addition of 500 nM SB-431542 (Selleckchem, cat. S1067) and 10 nM gastrin (Tocris, cat. 3006). […]
# [1] = curve of first compound, second compound 0.0316 µM
# [2] = curve of first compound, second compound 0.1 µM
# [3] = curve of first compound, second compound 0.316 µM
# [4] = curve of first compound, second compound 1 µM
# [5] = curve of first compound, second compound 3.16 µM
# [6] = curve of first compound, second compound 10 µM
# [7] = second compound 0.0316 µM, first compound 0.0316 µM
# [8] = second compound 0.0316 µM, first compound 0.1 µM
# [9] = second compound 0.0316 µM, first compound 0.316 µM
# [10] = second compound 0.0316 µM, first compound 1 µM
# [11] = second compound 0.0316 µM, first compound 3.16 µM
# [12] = second compound 0.0316 µM, first compound 10 µM
# [13] = second compound 0.1 µM, first compound 0.0316 µM
# [14] = second compound 0.1 µM, first compound 0.1 µM
# [15] = second compound 0.1 µM, first compound 0.316 µM
# [16] = second compound 0.1 µM, first compound 1 µM
# [17] = second compound 0.1 µM, first compound 3.16 µM
# [18] = second compound 0.1 µM, first compound 10 µM
# [19] = second compound 0.316 µM, first compound 0.0316 µM
# [20] = second compound 0.316 µM, first compound 0.1 µM
# [21] = second compound 0.316 µM, first compound 0.316 µM
# [22] = second compound 0.316 µM, first compound 1 µM
# [23] = second compound 0.316 µM, first compound 3.16 µM
# [24] = second compound 0.316 µM, first compound 10 µM
# [25] = second compound 1 µM, first compound 0.0316 µM
# [26] = second compound 1 µM, first compound 0.1 µM
# [27] = second compound 1 µM, first compound 0.316 µM
# [28] = second compound 1 µM, first compound 1 µM
# [29] = second compound 1 µM, first compound 3.16 µM
# [30] = second compound 1 µM, first compound 10 µM
# [31] = second compound 3.16 µM, first compound 0.0316 µM
# [32] = second compound 3.16 µM, first compound 0.1 µM
# [33] = second compound 3.16 µM, first compound 0.316 µM
# [34] = second compound 3.16 µM, first compound 1 µM
# [35] = second compound 3.16 µM, first compound 3.16 µM
# [36] = second compound 3.16 µM, first compound 10 µM
# [37] = second compound 10 µM, first compound 0.0316 µM
# [38] = second compound 10 µM, first compound 0.1 µM
# [39] = second compound 10 µM, first compound 0.316 µM
# [40] = second compound 10 µM, first compound 1 µM
# [41] = second compound 10 µM, first compound 3.16 µM
# [42] = second compound 10 µM, first compound 10 µM
# 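Further: spheroids exposed to agents for 7 days before reading.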
# 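Wherever viability, T/C is given: luminescence signal used as a stand-in for viable cells.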
smiles,measurement,setting,value
Nc1ccn(C2OC(CO)C(O)C2(F)F)c(=O)n1 (stereo not given) + CN1CCN(c2cc(C(=O)Nc3cc4cc(-c5cnn(C)c5)ccc4cn3)ccn2)CC1,IC50,[1],< 31.6 nM
same,IC50,[2],< 31.6 nM
same,IC50,[3],< 31.6 nM
same,IC50,[4],< 31.6 nM
same,IC50,[5],< 31.6 nM
same,IC50,[6],< 31.6 nM
same,"viability, T/C",[7],7.87%
same,"viability, T/C",[8],4.22%
same,"viability, T/C",[9],5.68%
same,"viability, T/C",[10],2.98%
same,"viability, T/C",[11],2.97%
same,"viability, T/C",[12],2.28%
same,"viability, T/C",[13],9.1%
same,"viability, T/C",[14],4.08%
same,"viability, T/C",[15],3.35%
same,"viability, T/C",[16],3.48%
same,"viability, T/C",[17],2.39%
same,"viability, T/C",[18],1.85%
same,"viability, T/C",[19],11.6%
same,"viability, T/C",[20],6.64%
same,"viability, T/C",[21],4.53%
same,"viability, T/C",[22],3.35%
same,"viability, T/C",[23],2.23%
same,"viability, T/C",[24],2.18%
same,"viability, T/C",[25],1.03%
same,"viability, T/C",[26],0.46%
same,"viability, T/C",[27],1.22%
same,"viability, T/C",[28],0.37%
same,"viability, T/C",[29],0.88%
same,"viability, T/C",[30],1.48%
same,"viability, T/C",[31],0.37%
same,"viability, T/C",[32],0.29%
same,"viability, T/C",[33],0.92%
same,"viability, T/C",[34],0.2%
same,"viability, T/C",[35],0.33%
same,"viability, T/C",[36],0.29%
same,"viability, T/C",[37],0.21%
same,"viability, T/C",[38],0.61%
same,"viability, T/C",[39],0.42%
same,"viability, T/C",[40],0.38%
same,"viability, T/C",[41],0.23%
same,"viability, T/C",[42],0.54%
CCN1CCN(Cc2ccc(Nc3ncc(F)c(-c4cc(F)c5nc(C)n(C(C)C)c5c4)n3)nc2)CC1,"viability, T/C",compound 0.00316 µM,84.8% and 87.7%
same,"viability, T/C",compound 0.01 µM,74.9% and 74.1%
same,"viability, T/C",compound 0.0316 µM,74% and 73.8%
same,"viability, T/C",compound 0.1 µM,61% and 58.6%
same,"viability, T/C",compound 0.316 µM,45.6% and 50.9%
same,"viability, T/C",compound 1 µM,39.5% and 40.4%
same,IC50,curve of compound,245 nM and 335 nM
Nc1ccn(C2OC(CO)C(O)C2(F)F)c(=O)n1 (stereo not given) + CNC(=O)c1ccc(Nc2nc(OC3CCCC3)c3c(-c4ccc5nc(C)oc5c4)c[nH]c3n2)c(OC)c1,IC50,[1],< 31.6 nM
same,IC50,[2],< 31.6 nM
same,IC50,[3],< 31.6 nM
same,IC50,[4],< 31.6 nM
same,IC50,[5],< 31.6 nM
same,IC50,[6],< 31.6 nM
same,"viability, T/C",[7],8.18%
same,"viability, T/C",[8],3.36%
same,"viability, T/C",[9],3.13%
same,"viability, T/C",[10],2.68%
same,"viability, T/C",[11],2.2%
same,"viability, T/C",[12],1.72%
same,"viability, T/C",[13],6.64%
same,"viability, T/C",[14],4.51%
same,"viability, T/C",[15],2.85%
same,"viability, T/C",[16],2.62%
same,"viability, T/C",[17],2.66%
same,"viability, T/C",[18],2.22%
same,"viability, T/C",[19],7.09%
same,"viability, T/C",[20],3.96%
same,"viability, T/C",[21],3.31%
same,"viability, T/C",[22],2.62%
same,"viability, T/C",[23],2.25%
same,"viability, T/C",[24],1.52%
same,"viability, T/C",[25],8.74%
same,"viability, T/C",[26],4.85%
same,"viability, T/C",[27],4.17%
same,"viability, T/C",[28],3.63%
same,"viability, T/C",[29],1.95%
same,"viability, T/C",[30],1.24%
same,"viability, T/C",[31],8.43%
same,"viability, T/C",[32],6.12%
same,"viability, T/C",[33],4.34%
same,"viability, T/C",[34],3.36%
same,"viability, T/C",[35],3.71%
same,"viability, T/C",[36],1.58%
same,"viability, T/C",[37],9.23%
same,"viability, T/C",[38],7.84%
same,"viability, T/C",[39],5.26%
same,"viability, T/C",[40],3.45%
same,"viability, T/C",[41],2.47%
same,"viability, T/C",[42],1.32%
CC(Nc1ccc2c(c1)OCCn1cc(N3C(=O)OCC3C(F)F)nc1-2)C(N)=O (stereo not given) + CNC(=O)c1ccc(Nc2nc(OC3CCCC3)c3c(-c4ccc5nc(C)oc5c4)c[nH]c3n2)c(OC)c1,IC50,[1],905 nM
same,IC50,[2],221 nM
same,IC50,[3],< 31.6 nM
same,IC50,[4],< 31.6 nM
same,IC50,[5],< 31.6 nM
same,IC50,[6],< 31.6 nM
same,"viability, T/C",[7],84.8%
same,"viability, T/C",[8],90.6%
same,"viability, T/C",[9],71.2%
same,"viability, T/C",[10],49.1%
same,"viability, T/C",[11],41.6%
same,"viability, T/C",[12],41.2%
same,"viability, T/C",[13],59%
same,"viability, T/C",[14],61.5%
same,"viability, T/C",[15],41.7%
same,"viability, T/C",[16],42.8%
same,"viability, T/C",[17],33.4%
same,"viability, T/C",[18],29%
same,"viability, T/C",[19],21.1%
same,"viability, T/C",[20],20.5%
same,"viability, T/C",[21],18.4%
same,"viability, T/C",[22],15%
same,"viability, T/C",[23],13.5%
same,"viability, T/C",[24],14%
same,"viability, T/C",[25],18.1%
same,"viability, T/C",[26],14.4%
same,"viability, T/C",[27],14.4%
same,"viability, T/C",[28],14.8%
same,"viability, T/C",[29],12.8%
same,"viability, T/C",[30],12.6%
same,"viability, T/C",[31],17.7%
same,"viability, T/C",[32],18.5%
same,"viability, T/C",[33],18%
same,"viability, T/C",[34],14.2%
same,"viability, T/C",[35],13.1%
same,"viability, T/C",[36],11.8%
same,"viability, T/C",[37],16.1%
same,"viability, T/C",[38],17.5%
same,"viability, T/C",[39],14.1%
same,"viability, T/C",[40],15.6%
same,"viability, T/C",[41],13.4%
same,"viability, T/C",[42],11.6%
CC(C)CC(NC(=O)C(Cc1ccccc1)NC(=O)c1cnccn1)B(O)O (stereo not given),"viability, T/C",compound 0.000949 µM,76.6% and 65.6%
same,"viability, T/C",compound 0.003 µM,1.85% and 2.08%
same,"viability, T/C",compound 0.00949 µM,0.32% and 0.23%
same,"viability, T/C",compound 0.03 µM,0.26% and 0.38%
same,"viability, T/C",compound 0.0949 µM,0.18% and 0.14%
same,"viability, T/C",compound 0.3 µM,0.78% and 0.14%
same,IC50,curve of compound,1.43 nM and 1.26 nM
